What was measured:
[1] = molecular target: Adenosine A2 receptor (Rattus norvegicus, UniProt P29276+P30543)
[2] = molecular target: T1, Adenosine receptor A1 (Rattus norvegicus, UniProt P25099); assay: biochemical
T1 sequence (P25099 whole entry): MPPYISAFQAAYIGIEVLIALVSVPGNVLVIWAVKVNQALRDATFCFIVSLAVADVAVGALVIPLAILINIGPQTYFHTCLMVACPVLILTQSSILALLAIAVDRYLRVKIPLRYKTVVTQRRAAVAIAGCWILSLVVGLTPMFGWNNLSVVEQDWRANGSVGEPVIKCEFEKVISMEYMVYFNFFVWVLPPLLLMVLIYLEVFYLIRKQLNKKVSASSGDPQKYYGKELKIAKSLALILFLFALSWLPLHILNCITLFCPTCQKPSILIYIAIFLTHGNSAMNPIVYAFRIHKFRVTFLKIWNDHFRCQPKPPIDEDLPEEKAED

OC[C@H]1OC(n2cnc3c(NC4CCCC4)nc(I)nc32)[C@H](O)[C@@H]1O (some centres undefined)
Ki [1]: 40000 nM
Ki [2]: 20 nM

OC[C@H]1OC(n2cnc3c(NC4CCCC4)nc(O)nc32)[C@H](O)[C@@H]1O (some centres undefined)
Ki [1]: 7500 nM
Ki [2]: 19 nM

OC[C@H]1OC(n2cnc3c(NC4CC5CCC4C5)nc(O)nc32)[C@H](O)[C@@H]1O (some centres undefined)
Ki [1]: 80000 nM
Ki [2]: 35 nM

OC[C@H]1OC(n2cnc3c(NC4CCC4)nc(O)nc32)[C@H](O)[C@@H]1O (some centres undefined)
Ki [1]: 15000 nM
Ki [2]: 55 nM

OC[C@H]1OC(n2cnc3c(NC4CCCCC4)nc(O)nc32)[C@H](O)[C@@H]1O (some centres undefined)
Ki [1]: 15000 nM
Ki [2]: 40 nM

OC[C@H]1OC(n2cnc3c(NC4CCC5CCCCC5C4)nc(O)nc32)[C@H](O)[C@@H]1O (some centres undefined)
Ki [1]: 140000 nM
Ki [2]: 30000 nM

OC[C@H]1OC(n2cnc3c(NC4CCCCCC4)nc(O)nc32)[C@H](O)[C@@H]1O (some centres undefined)
Ki [1]: 6000 nM
Ki [2]: 70 nM
